Assay [1] deals with M. tuberculosis XDR (resistant to isoniazid, rifampicin, amikacin and moxifloxacin). The assay can be described thus: microbe, parasite or virus in culture. The settings on record: Mycobacterium tuberculosis, 504 h, read-out: MIC M. tb XDR. Format: cell-based.
The test system of assay [2] is M. tuberculosis MDR (resistant to isoniazid and rifampicin). Description: microbe, parasite or virus in culture. Format: cell-based. The settings on record: Mycobacterium tuberculosis, 504 h, read-out: MIC M. tb MDR.

Structures are written as SMILES. Converted amounts (≈) assume the structure as drawn.

Consider `C[C@]1(COc2ccccc2-n2cc(-c3ccc(C(F)(F)F)cc3)nn2)Cn2cc([N+](=O)[O-])nc2O1` [IA22, (R)-2-{2-[4-(4-trifluoromethylphenyl)-1H-1,2,3-triazol-1-yl]phenoxymethyl}-2,3-dihydro-2-methyl-6-nitroimidazo[2,1-b]oxazole], for which the MIC in assay [1] and in assay [2] was 4 µg/mL (≈ 8.22 µM) in each case.

`C[C@]1(COc2ccccc2-n2cc(-c3ccc(OC(F)(F)F)cc3)nn2)Cn2cc([N+](=O)[O-])nc2O1` [IA23, (R)-2-{2-[4-(4-trifluoromethoxyphenyl)-1H-1,2,3-triazol-1-yl]phenoxymethyl}-2,3-dihydro-2-methyl-6-nitroimidazo[2,1-b]oxazole]: the MIC in assay [1] and in assay [2] was 4 µg/mL (≈ 7.96 µM) in each case.

With `C[C@]1(COc2ccccc2-n2cc(-c3ccc(F)cc3F)nn2)Cn2cc([N+](=O)[O-])nc2O1` [IA24, (R)-2-{2-[4-(2,4-difluorophenyl)-1H-1,2,3-triazol-1-yl]phenoxymethyl}-2,3-dihydro-2-methyl-6-nitroimidazo[2,1-b]oxazole], the MIC in assay [1] and in assay [2] was 1 µg/mL (≈ 2.2 µM) each time.

On to `C[C@]1(COc2ccc(-n3cc(COc4ccc(OC(F)(F)F)cc4)nn3)cc2)Cn2cc([N+](=O)[O-])nc2O1` [IA25], for which the MIC in assay [1] and in assay [2] was 0.12 µg/mL (≈ 0.225 µM) each time.

As to `C[C@]1(COc2ccc(-n3cc(COc4ccc(F)cc4)nn3)cc2)Cn2cc([N+](=O)[O-])nc2O1` [IA26], the MIC in assay [1] and in assay [2] was 0.5 µg/mL (≈ 1.07 µM) throughout.

For `C[C@]1(COc2ccc(-n3cc(COc4ccc(C(F)(F)F)cc4)nn3)cc2)Cn2cc([N+](=O)[O-])nc2O1` [IA27], the MIC in assay [1] and in assay [2] was 0.25 µg/mL (≈ 0.484 µM) in each case.

For `C[C@]1(COc2ccc(-n3cc(COc4ccccc4F)nn3)cc2)Cn2cc([N+](=O)[O-])nc2O1` [IA28], the MIC in assay [1] and in assay [2] was 0.12 µg/mL (≈ 0.257 µM) throughout.

Turning to `Cc1ccc(OCc2cn(-c3ccc(OC[C@@]4(C)Cn5cc([N+](=O)[O-])nc5O4)cc3)nn2)cc1` [IA29], the MIC in assay [1] and in assay [2] was 32 µg/mL (≈ 69.2 µM) throughout.

For `CC(C)c1ccc(OCc2cn(-c3ccc(OC[C@@]4(C)Cn5cc([N+](=O)[O-])nc5O4)cc3)nn2)cc1` [IA30], the MIC in assay [1] and in assay [2] was 32 µg/mL (≈ 65.2 µM) throughout.

For `CCc1ccc(OCc2cn(-c3ccc(OC[C@@]4(C)Cn5cc([N+](=O)[O-])nc5O4)cc3)nn2)cc1` [IA31], the MIC in assay [1] and in assay [2] was 0.25 µg/mL (≈ 0.525 µM) in each case.

Consider `CCC(C)c1ccc(OCc2cn(-c3ccc(OC[C@@]4(C)Cn5cc([N+](=O)[O-])nc5O4)cc3)nn2)cc1` (stereo partly drawn) [IA32], for which the MIC in assay [1] and in assay [2] was 0.12 µg/mL (≈ 0.238 µM) each time.

Take `C[C@]1(COc2cccc(-n3cc(COc4ccc(OC(F)(F)F)cc4)nn3)c2)Cn2cc([N+](=O)[O-])nc2O1` [IA33]: the MIC in assay [1] and in assay [2] was 0.12 µg/mL (≈ 0.225 µM) in each case.

Regarding `C[C@]1(COc2cccc(-n3cc(COc4ccc(F)cc4)nn3)c2)Cn2cc([N+](=O)[O-])nc2O1` [IA34], the MIC in assay [1] and in assay [2] was 0.12 µg/mL (≈ 0.257 µM) each time.

With `C[C@]1(COc2cccc(-n3cc(COc4ccc(C(F)(F)F)cc4)nn3)c2)Cn2cc([N+](=O)[O-])nc2O1` [IA35], the MIC in assay [1] and in assay [2] was 2 µg/mL (≈ 3.87 µM) in each case.

As for `C[C@]1(COc2cccc(-n3cc(COc4ccccc4F)nn3)c2)Cn2cc([N+](=O)[O-])nc2O1` [IA36], the MIC in assay [1] and in assay [2] was 2 µg/mL (≈ 4.29 µM) each time.

Turning to `Cc1ccc(OCc2cn(-c3cccc(OC[C@@]4(C)Cn5cc([N+](=O)[O-])nc5O4)c3)nn2)cc1` [IA37], the MIC in assay [1] and in assay [2] was 4 µg/mL (≈ 8.65 µM) each time.

Take `CC(C)c1ccc(OCc2cn(-c3cccc(OC[C@@]4(C)Cn5cc([N+](=O)[O-])nc5O4)c3)nn2)cc1` [IA38]: the MIC in assay [1] and in assay [2] was 4 µg/mL (≈ 8.15 µM) throughout.

For `C[C@]1(COc2ccccc2-n2cc(COc3ccc(OC(F)(F)F)cc3)nn2)Cn2cc([N+](=O)[O-])nc2O1` [IA39], the MIC in assay [1] and in assay [2] was 1 µg/mL (≈ 1.88 µM) each time.

As to `C[C@]1(COc2ccccc2-n2cc(COc3ccc(F)cc3)nn2)Cn2cc([N+](=O)[O-])nc2O1` [IA40], the MIC in assay [1] and in assay [2] was 4 µg/mL (≈ 8.58 µM) throughout.

Consider `C[C@]1(COc2ccccc2-n2cc(COc3ccc(C(F)(F)F)cc3)nn2)Cn2cc([N+](=O)[O-])nc2O1` [IA41], for which the MIC in assay [1] and in assay [2] was 2 µg/mL (≈ 3.87 µM) each time.

On to `C[C@]1(COc2ccccc2-n2cc(COc3ccccc3F)nn2)Cn2cc([N+](=O)[O-])nc2O1` [IA42], for which the MIC in assay [1] and in assay [2] was 2 µg/mL (≈ 4.29 µM) throughout.

For `C[C@]1(COc2ccc(-n3nnnc3-c3ccccc3)cc2)Cn2cc([N+](=O)[O-])nc2O1` [IB1, (R)-2-{4-[5-phenyl-1H-tetrazol-1-yl]phenoxymethyl}-2,3-dihydro-2-methyl-6-nitroimidazo[2,1-b]oxazole], the MIC in assay [1] and in assay [2] was 2 µg/mL (≈ 4.77 µM) in each case.

`C[C@]1(COc2ccc(-n3nnnc3-c3ccc(OC(F)(F)F)cc3)cc2)Cn2cc([N+](=O)[O-])nc2O1` [IB2, (R)-2-{4-[5-(4-trifluoromethoxyphenyl)-1H-tetrazol-1-yl]phenoxymethyl}-2,3-dihydro-2-methyl-6-nitroimidazo[2,1-b]oxazole]: the MIC in assay [1] and in assay [2] was 2 µg/mL (≈ 3.97 µM) throughout.

Regarding `Cc1ccc(-c2nnnn2-c2ccc(OC[C@@]3(C)Cn4cc([N+](=O)[O-])nc4O3)cc2)cc1` [IB3, (R)-2-{4-[5-(4-methylphenyl)-1H-tetrazol-1-yl]phenoxymethyl}-2,3-dihydro-2-methyl-6-nitroimidazo[2,1-b]oxazole], the MIC in assay [1] and in assay [2] was 4 µg/mL (≈ 9.23 µM) throughout.

Consider `C[C@]1(COc2ccc(-n3nnnc3-c3ccc(F)cc3)cc2)Cn2cc([N+](=O)[O-])nc2O1` [IB4, (R)-2-{4-[5-(4-fluorophenyl)-1H-tetrazol-1-yl]phenoxymethyl}-2,3-dihydro-2-methyl-6-nitroimidazo[2,1-b]oxazole], for which the MIC in assay [1] and in assay [2] was 4 µg/mL (≈ 9.15 µM) in each case.

Turning to `C[C@]1(COc2ccc(-n3nnnc3-c3ccc(C(F)(F)F)cc3)cc2)Cn2cc([N+](=O)[O-])nc2O1` [IB5, (R)-2-{4-[5-(4-trifluoromethylphenyl)-1H-tetrazol-1-yl]phenoxymethyl}-2,3-dihydro-2-methyl-6-nitroimidazo[2,1-b]oxazole], the MIC in assay [1] and in assay [2] was 1 µg/mL (≈ 2.05 µM) each time.

Turning to `CCc1ccc(-c2nnnn2-c2ccc(OC[C@@]3(C)Cn4cc([N+](=O)[O-])nc4O3)cc2)cc1` [IB6, (R)-2-{4-[5-(4-ethylphenyl)-1H-tetrazol-1-yl]phenoxymethyl}-2,3-dihydro-2-methyl-6-nitroimidazo[2,1-b]oxazole], the MIC in assay [1] and in assay [2] was 2 µg/mL (≈ 4.47 µM) each time.

On to `C[C@]1(COc2ccc(-n3nnnc3Oc3ccc(F)cc3)cc2)Cn2cc([N+](=O)[O-])nc2O1` [IB7, (R)-2-{4-[5-(4-fluorophenoxy)-1H-tetrazol-1-yl]phenoxymethyl}-2,3-dihydro-2-methyl-6-nitroimidazo[2,1-b]oxazole], for which the MIC in assay [1] and in assay [2] was 2 µg/mL (≈ 4.41 µM) in each case.

Turning to `C[C@]1(COc2ccc(-n3nnnc3Oc3ccc(C(F)(F)F)cc3)cc2)Cn2cc([N+](=O)[O-])nc2O1` [IB8, (R)-2-{4-[5-(4-trifluoromethylphenoxy)-1H-tetrazol-1-yl]phenoxymethyl}-2,3-dihydro-2-methyl-6-nitroimidazo[2,1-b]oxazole], the MIC in assay [1] and in assay [2] was 4 µg/mL (≈ 7.95 µM) in each case.

With `Cc1ccc(Oc2nnnn2-c2ccc(OC[C@@]3(C)Cn4cc([N+](=O)[O-])nc4O3)cc2)cc1` [IB9, (R)-2-{4-[5-(4-methylphenoxy)-1H-tetrazol-1-yl]phenoxymethyl}-2,3-dihydro-2-methyl-6-nitroimidazo[2,1-b]oxazole], the MIC in assay [1] and in assay [2] was 4 µg/mL (≈ 8.9 µM) each time.

Turning to `C[C@]1(COc2ccc(-n3nnnc3Oc3ccc(OC(F)(F)F)cc3)cc2)Cn2cc([N+](=O)[O-])nc2O1` [IB10, (R)-2-{4-[5-(4-trifluoromethoxyphenoxy)-1H-tetrazol-1-yl]phenoxymethyl}-2,3-dihydro-2-methyl-6-nitroimidazo[2,1-b]oxazole], the MIC in assay [1] and in assay [2] was 1 µg/mL (≈ 1.93 µM) in each case.

`C[C@]1(COc2ccc(-c3cc(-c4ccccc4)on3)cc2)Cn2cc([N+](=O)[O-])nc2O1` [IC1, (R)-2-{4-[5-phenylisoxazol-3-yl]phenoxymethyl}-2,3-dihydro-2-methyl-6-nitroimidazo[2,1-b]oxazole]: the MIC in assay [1] and in assay [2] was 0.12 µg/mL (≈ 0.287 µM) each time.

`CCc1ccc(-c2cc(-c3ccc(OC[C@@]4(C)Cn5cc([N+](=O)[O-])nc5O4)cc3)no2)cc1` [IC2, (R)-2-{4-[5-(4-ethylphenyl)isoxazol-3-yl]phenoxymethyl}-2,3-dihydro-2-methyl-6-nitroimidazo[2,1-b]oxazole]: the MIC in assay [1] and in assay [2] was 2 µg/mL (≈ 4.48 µM) throughout.

As for `C[C@]1(COc2ccc(-c3cc(-c4ccc(F)cc4F)on3)cc2)Cn2cc([N+](=O)[O-])nc2O1` [IC3, (R)-2-{4-[5-(2,4-difluorophenyl)isoxazol-3-yl]phenoxymethyl}-2,3-dihydro-2-methyl-6-nitroimidazo[2,1-b]oxazole], the MIC in assay [1] and in assay [2] was 0.25 µg/mL (≈ 0.55 µM) in each case.

`C[C@]1(COc2ccc(-c3cc(-c4ccccc4F)on3)cc2)Cn2cc([N+](=O)[O-])nc2O1` [IC4, (R)-2-{4-[5-(2-fluorophenyl)isoxazol-3-yl]phenoxymethyl}-2,3-dihydro-2-methyl-6-nitroimidazo[2,1-b]oxazole]: the MIC in assay [1] and in assay [2] was 2 µg/mL (≈ 4.58 µM) each time.

`C[C@]1(COc2ccc(-c3cc(-c4ccc(C(F)(F)F)cc4)on3)cc2)Cn2cc([N+](=O)[O-])nc2O1` [IC5, (R)-2-{4-[5-(4-trifluoromethylphenyl)isoxazol-3-yl]phenoxymethyl}-2,3-dihydro-2-methyl-6-nitroimidazo[2,1-b]oxazole]: the MIC in assay [1] and in assay [2] was 1 µg/mL (≈ 2.06 µM) in each case.

(Values after patent US9845330B2, “6-nitro-2,3-dihydroimidazo[2,1-b]oxazoles and a process for the preparation thereof” (priority 2013, dated 2017).)
